Results taken from patent US20090149530A1 (priority 2007, published 2009).

Columns and labels:
H5N1 virions = format: binding, Avian influenza A virus (H5N1); conditions: Averionol to Istrocyanidin bound
Dengue-2 virus particles = format: binding; conditions: Den-2; Averionol to Istrocyanidin bound

Structure (SMILES): COc1cc(OC)c2c(=O)c(O)c(-c3ccc(OC)c(OC)c3)oc2c1 [Averionol]
- Aver:Istro Ratio (H5N1 virions): 14.0
- Aver:Istro Ratio (Dengue-2 virus particles): 3.7
